Read-outs that look alike come from different tables or passages of the source. Square brackets hold non-standard residues; d marks the D form. Ends that are not written are not given here. Peptide text beside a SMILES is read from it. hArg = N=C(N)NCCCC[C@H](N)C(=O)O; Aib = CC(C)(N)C(=O)O
What was measured:
[1] = Calcemic action in normal rats (blood ionized calcium); type: in vivo; conditions: normal and TPTX rats
In short: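 Corrected (pH 7.4) blood ionized calcium tracked from tail-vein samples before and 1, 2, 4 or 6 h after dosing. Peptides diluted in phosphate-citrate/NaCl/Tween 80 buffer, pH 5.0, given i.v. at 1 ml/kg to groups of six 8-week-old female SD-IGS rats; means ± SE versus vehicle.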

[2] = Bone turnover markers (PINP, osteocalcin, CTX) in mice, daily treatment; type: in vivo; conditions: 5 nmol/kg i.v. daily, days 6 and 13
Protocol: FIGS. 30A-30F are graphs showing the effects of PTH analogs on plasma bone markers in mice. Mice (C57BL/6, males, 3 months) were intravenously injected daily with either vehicle, rPTH(1-34) (SEQ ID NO:130), M-PTH(1-34) (SEQ ID NO:12), or (EALK)-PTHrP(1-30) (SEQ ID NO:90) (5 nmol/kg; n=7 group) for 14 days. Markers of bone turnover (PINP, CTX and osteocalcin) were assessed by ELISA in blood at day 6 (FIGS. 30A, 30C, and 30E, respectively) and 13 (FIGS. 30B, 30D, and 30F, respectively).
A second set of experiments was performed in which mice received 5 nmol/kg intravenous daily treatment with rPTH(1-34), M-PTH(1-34), or EALK-PTHrP(1-30) for 14 days. Blood samples were taken at days 6 and 13, and markers of bone turnover (PINP, osteocalcin and CTX) were assessed by ELISA.

[3] = Bone structural parameters after two-week daily treatment in mice (Piximus, microCT); type: in vivo
Protocol: FIG. 31 is a set of images showing the effects of two-week daily treatment of R^0 and RG ligands on trabecular and cortical bone structure in mice. Mice (C57BL/6, males, 3 months) were treated (i.v.) with either vehicle, rPTH(1-34) (SEQ ID NO:130), M-PTH(1-34) (SEQ ID NO:12), or E^18,A^22,L^25,K^26 (EALK)PTHrP(1-30) (SEQ ID NO:90) (5 nmol/kg; n=7 group), daily for 14 days, and femurs were analyzed by μCT.
As described above, mice were treated intravenously) with either vehicle, rPTH(1-34), M-PTH(1-34), or EALK-PTHrP(1-30) daily for 14 days.

[4] = Blood ionized calcium in C57BL/6 mice after intravenous injection; type: in vivo; conditions: 5 nmol/kg i.v.
Protocol: FIGS. 29A and 29B are graphs showing the effect of R^0 and RG selective PTH analogs on plasma cAMP and calcium in mice. FIGS. 29A and 29B show plasma cAMP concentrations in mice (C57BL/6, males, 3 months) that were administered either vehicle, rPTH(1-34) (SEQ ID NO:130), M-PTH(1-34) (M=A^1,Aib^3,Q^10,Har^11,A^12,W^14,R^19) (SEQ ID NO:12), or E^18,A^22,L^25,K^26-(EALK)-PTHrP(1-30) (SEQ ID NO:90) (5 nmol/kg; n=7 for cAMP, n=4 for calcium) intravenously. […] In the calcium experiment, blood was withdrawn before, and 1, 2, 4 and 6 hours after injection, and ionized calcium was measured using a Ca^++/pH analyzer.
We also characterized the effects of the EALK-PTHrP(1-30) peptide on cAMP production. Three month old male C57BL/6 mice were intravenously injected with either vehicle, rPTH(1-34), M-PTH(1-34) (M=A^1,Aib^3,Q^10,Har^11,A^12,W^14,R^19) or E^18,A^22,L^25,K^26-(EALK)-PTHrP(1-30) (5 nmol/kg). In the cAMP experiment (FIG. 29A), blood was withdrawn 10 minutes after injection and plasma level of cAMP was measured by RIA. In the calcium experiment (FIG. 29B), blood was withdrawn prior to injection and 1, 2, 4, and 6 hours after injection. Ionized calcium was measured using a Ca^++/pH analyzer.

[5] = biological target: T1, human PTHR, G protein-coupled conformation (RG) (Homo sapiens, UniProt Q03431); assay: Competition binding to RG conformation of hPTHR (COS-7 membranes, GαsND, 125I-[Aib1,3,M]PTH(1-15) tracer)
T1 construct: expressed in transfected cells; host or cells: COS-7, transient (Fugene-6); membranes
T1 sequence (Q03431 27-593): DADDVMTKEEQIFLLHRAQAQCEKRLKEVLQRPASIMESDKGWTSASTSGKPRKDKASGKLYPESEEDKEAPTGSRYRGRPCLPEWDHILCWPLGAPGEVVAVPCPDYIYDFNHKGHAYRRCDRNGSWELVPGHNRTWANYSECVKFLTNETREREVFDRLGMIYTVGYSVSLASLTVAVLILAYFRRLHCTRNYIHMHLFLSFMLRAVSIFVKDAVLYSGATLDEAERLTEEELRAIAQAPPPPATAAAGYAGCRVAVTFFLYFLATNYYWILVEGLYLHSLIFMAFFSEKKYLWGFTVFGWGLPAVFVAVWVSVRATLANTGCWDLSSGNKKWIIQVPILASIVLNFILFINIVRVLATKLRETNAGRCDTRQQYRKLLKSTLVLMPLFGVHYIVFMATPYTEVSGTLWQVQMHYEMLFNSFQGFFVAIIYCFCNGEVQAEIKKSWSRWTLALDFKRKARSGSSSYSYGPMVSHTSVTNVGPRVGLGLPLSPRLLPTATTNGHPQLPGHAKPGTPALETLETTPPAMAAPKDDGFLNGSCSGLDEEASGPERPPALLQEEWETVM

[6] = biological target: T2, human PTHR, G protein-uncoupled conformation (R^0) (Homo sapiens, UniProt Q03431); assay: Competition binding to R0 conformation of hPTHR (COS-7 membranes, GTPγS, 125I-PTH(1-34) tracer)
T2 construct: expressed in transfected cells; host or cells: COS-7, transient (Fugene-6)
T2 sequence (Q03431 27-593): T1 sequence (Q03431 27-593)
In short: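 Bound versus free radioligand was separated by vacuum filtration after 90 min incubation of COS-7 hPTHR membranes (20-100 μg/mL) with tracer and competing peptides. Non-specific binding came from a saturating unlabeled analog.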

hPTHR [7] = biological target: T3, hPTHR (Homo sapiens, UniProt Q03431); assay: cAMP dose-response in HKRK-B64 cells; type: cell-based; set-up: expressed in transfected cells; conditions: basal 5.2 ± 0.9 pmole/well not subtracted
T3 sequence (Q03431 27-593): T1 sequence (Q03431 27-593)
Protocol: Cells were treated for 30 minutes at room temperature with varying concentrations of ligand in the presence of IBMX. […] Data are means (±s.e.m.) of four (FIG. 7A) or five (FIG. 7B) experiments, each performed in duplicate.
Following treatment of cells with a ligand, the intracellular cAMP levels were measured by radioimmuno assay, as described (Shimizu et al., J. Biol. Chem. 276:49003-49012 (2001)).

hPTHR [8] = biological target: T3, hPTHR; assay: Inositol phosphate production in COS-7/hPTHR cells; type: cell-based; set-up: expressed in transfected cells; host or cells: COS-7, transient (Fugene-6); conditions: basal 330 ± 8 cpm/well not subtracted
Protocol: The capacity of the ligands to stimulate the production of inositol phosphates (IPs) was assessed in COS-7 cells transiently transfected with the hPTHR (FIG. 7B). Cells were treated for 30 minutes at room temperature with varying concentrations of ligand. […] Data are means (±s.e.m.) of four (FIG. 7A) or five (FIG. 7B) experiments, each performed in duplicate.
The stimulation of intracellular inositol phosphates (IPs) was measured in transiently transfected COS-7 cells that were pre-labeled (16 hours) with ^3H-myo-D-inositol (2 μCi/ml). Cells were treated with ligand in DMEM containing fetal bovine serum (10%) and LiCl (30 mM) for 30 minutes; cells were lysed with ice cold trichloro acetic acid (5%) and IPs were extracted from the acid-lysates by ion-exchange filtration, as described (Shimizu et al., J. Biol. Chem. 276:49003-49012 (2001)).

SaOS cells = assay: cAMP production in SaOS cells, dose-response; type: cell-based; conditions: Table 2; read-out: SaOS camp EC50
MC3T3-E1 cells = assay: cAMP in MC3T3-E1 cells, dose-response; type: cell-based
Protocol: In the 1-30 scaffold, Gly, Ser, Leu, Asn, Gln, Trp, Glu, and Lys were substituted at position 29; Gly, Ser, Leu, Asn, Asp, Trp, and Lys were substituted at position 30; and Ser, Leu, Asn, Val, Trp, Glu, and Lys were substituted at position 31. […] These peptides were tested for cAMP activity in MC3T3-E1 cells.

[9] = Piximus, mice, 5 nmol/kg i.v. daily 14 days
[10] = mice, 5 nmol/kg i.v. daily 14 days

Compound	effect on bone turnover markers, in words [2]	Lumbar Spine BMD [3, 9]	effect on trabecular/cortical bone and BMD, in words [3, 10]	Conn-Dens. ([3]; microCT distal femur)	Cort Th. ([3]; microCT distal femur)	Tb · N ([3]; microCT distal femur)	Tb · Th ([3]; microCT distal femur)	TbSp ([3]; microCT distal femur)	TrabecularBV/TV ([3]; microCT distal femur)	BA ([3]; microCT mid femur)	BA/TA ([3]; microCT mid femur)	Cort Th. ([3]; microCT mid femur)	MA ([3]; microCT mid femur)	TA ([3]; microCT mid femur)	ionized calcium response, in words [4]	other results
Ala^1,Aib^3-[M]PTH(1-34) (AV[Aib]EIQLMHQ[hArg]AKWLNSMRRVEWLRKKLQDVHNF) [M-PTH(1-34), M=A1,Aib3,Q10,Har11,A12,W14,R19]	strongly induced increases in markers of both bone formation	0.0524 ± 0.0002 g/cm^2	robustly increased trabecular bone, but also detectably diminished cortical bone	263 ± 25 1/mm^3	166 ± 6 μm	5.22 ± 0.34 1/mm	71.5 ± 1.8 μm	208 ± 17 μm	35.0 ± 3.0%	0.837 ± 0.022 mm^2	40.0 ± 0.8%	151 ± 3 μm	1.26 ± 0.04 mm^2	2.10 ± 0.06 mm^2	markedly more robust and more sustained than that of PTH(1-34)	calcemic action compared with control peptides, in words [1]: higher calcemic actions than did PTH(1-34)
CCCC[C@H](NC(=O)[C@H](CCCNC(=N)N)NC(=O)[C@H](CCC(=O)O)NC(=O)[C@@H](NC(=O)[C@H](CO)NC(=O)[C@H](C)NC(=O)[C@H](CC(C)C)NC(=O)[C@H](Cc1c[nH]cn1)NC(=O)[C@H](CCCCN)NC(=O)CNC(=O)[C@H](CC(C)C)NC(=O)[C@H](CC(N)=O)NC(=O)[C@H](Cc1c[nH]cn1)NC(=O)[C@H](CCCC)NC(=O)[C@H](CC(C)C)NC(=O)[C@H](CCC(N)=O)NC(=O)[C@@H](NC(=O)[C@H](CCC(=O)O)NC(=O)[C@H](CO)NC(=O)[C@@H](NC(=O)[C@H](C)N)C(C)C)[C@@H](C)CC)C(C)C)C(=O)N[C@@H](CCC(N)=O)C(=O)N[C@@H](Cc1c[nH]c2ccccc12)C(=O)N[C@@H](CC(C)C)C(=O)N[C@@H](CCCNC(=N)N)C(=O)N[C@@H](CCCCN)C(=O)N[C@@H](CCCCN)C(=O)N[C@@H](CC(C)C)C(=O)N[C@@H](CCC(N)=O)C(=O)N[C@@H](CC(=O)O)C(=O)N[C@H](C(=O)N[C@@H](Cc1c[nH]cn1)C(=O)N[C@@H](CC(N)=O)C(=O)N[C@@H](Cc1ccc(O)cc1)C(N)=O)C(C)C [[Nle^8,21,Tyr^34]rPTH(1-34)NH2, [Nle^8,21,Tyr^34]rat(r)PTH(1-34)NH2, reference compound]																IC50 ([5]; Table 5, read-out: IC50 RG, ^125I-PTH(1-15) + GsND): 0.86 ± 0.24 nM; IC50 ([6]; IC50 RR^0, ^125I-PTH(1-34) + GTPγS, Table 5): 4.2 ± 0.5 nM; R0:RG ([6]; Table 5, fold weaker affinity for R0 than RG): 5; cAMP in HKRK-B64 cells Emax (hPTHR [7]): 55 ± 12 picomole/well; IP in COS-7/hPTHR cells Emax (hPTHR [8]): 2,407 ± 138 cpm/well
CC[C@H](C)[C@H](NC(=O)[C@H](CC(C)C)NC(=O)[C@H](CCCCN)NC(=O)[C@H](CC(C)C)NC(=O)[C@H](CC(C)C)NC(=O)[C@H](Cc1ccccc1)NC(=O)[C@H](C)NC(=O)[C@H](CCCNC(=N)N)NC(=O)[C@H](CCCNC(=N)N)NC(=O)[C@H](CCCNC(=N)N)NC(=O)[C@H](CCC(=O)O)NC(=O)[C@H](CC(=O)O)NC(=O)[C@H](CCC(N)=O)NC(=O)[C@@H](NC(=O)[C@H](CO)NC(=O)[C@H](CCCCN)NC(=O)CNC(=O)[C@H](CCCCN)NC(=O)[C@H](CC(=O)O)NC(=O)[C@H](Cc1c[nH]cn1)NC(=O)[C@H](CC(C)C)NC(=O)[C@H](CC(C)C)NC(=O)[C@H](CCC(N)=O)NC(=O)[C@H](Cc1c[nH]cn1)NC(=O)[C@H](CCC(=O)O)NC(=O)[C@H](CO)NC(=O)[C@@H](NC(=O)[C@H](C)N)C(C)C)[C@@H](C)CC)C(=O)N[C@@H](C)C(=O)N[C@@H](CCC(=O)O)C(N)=O [E18, A22, L25, K26-PTHrP(1-30)NH, E18,A22,L25,K26-PTHrP(1-30)] (H-AVSEHQLLHDKGKSIQDERRRAFLLKLIAE-NH2; N-terminus assumed)	increased bone formation markers, with relatively smaller effects on the resorption marker	0.0464 ± 0.0002 g/cm^2	increased cortical bone thickness with significance in the distal femur	117 ± 9 1/mm^3	238 ± 9 μm	4.13 ± 0.16 1/mm	57.8 ± 2.1 μm	238 ± 10 μm	16.5 ± 1.3%	0.821 ± 0.027 mm^2	40.3 ± 0.6%	176 ± 4 μm	1.21 ± 0.03 mm^2	2.03 ± 0.06 mm^2	similar, if not lower, than that of PTH(1-34)	IC50 ([5]; Table 2, read-out: RG binding affinity hPTHR IC50): 0.08 nM; IC50 ([5]; Table 4, human PTH1 receptor, read-out: RG binding IC50): 0.08 nM; R0/RG selectivity ([6]; Table 2, hPTHR): 11169; IC50 ([6]; Table 4, human PTH1 receptor, read-out: R0 binding IC50): 945 nM; R0/RG ratio ([6]; human PTH receptor on COS-7 cell membranes): 11813; Total Femur BMD [3, 9]: 0.620 ± 0.0003 g/cm^2; EC50 (SaOS cells): 0.063 nM; EC50 (MC3T3-E1 cells; Table 2, read-out: MC3T3-E1 cAMP EC50): 0.059 nM; EC50 (MC3T3-E1 cells; Table 3, read-out: dose-response cAMP in MC3T3-E1 (EC50)): 0.059 nM
